We go through 15 molecules from patent US11046753B2, “Antibody composition and buffer system therefor” (INNOVA BIOSCIENCES LTD, priority 2013, dated 2021).

For data set [1] the following is noted: 25° C., cited from earlier work; for pKa (COOH): Table 1; for pKa of buffer: neutralisation / catch / wash buffers.
Data set [2] in a line: Carbodiimide (EDC)-mediated conjugation of goat anti-rabbit IgG to carboxylated gold nanoparticles in presence of additive, read by lateral flow assay. The method, then: Molecules were tested initially at pH 5 in EDC-mediated reactions with carboxylated gold particles (InnovaCoat GOLD, Innova Biosciences). Potentially interesting molecules from this screening exercise were further evaluated in NHS ester reactions, isothiocyanate reactions and thiolation reactions involving iminothiolane. All of these reactions are widely used in the antibody conjugation field and all would be expected to suffer from interference in the presence of glycine.
Lateral flow test strips (4 mm wide) were prepared from nitrocellulose membrane (Millipore Hi Flow plus 90) striped with goat anti-rabbit IgG (test line) and biotin-BSA (control line). Strips were housed in plastic cartridges and samples of gold conjugate (80 ul) were added to the sample pad. Cartridges were allowed to stand for 30 min and then read using a ESE-Quant GOLD reader—QIAGEN. Each sample was spiked with a fixed amount of streptavidin-gold (Innova biosciences—Product code: 250-0200), which binds to the control line, to check that each test strip had run correctly and that test line data was valid.
10 μg of goat anti-rabbit IgG (GAR) was used per ml of coated 40 nm nanoparticles with carboxyl functionality (InnovaCoat GOLD, Innova Biosciences) at […] in the presence of additives at 50 mM final concentration. Typically reactions were set up with the following additions: 40 μl of 40 nm InnovaCoat (carboxylated) gold nanopartcles, were incubated 5 minutes with 4 μl 0.1 mg/ml GAR, 20 μl water, and 80 μl of 100 mM MES buffer containing 100 mM of additive, pH 5.0. Next, 16 μl of 1 mM EDC was added and after 10 min incubation at 22° C., 20 μl of 10×TBS/1% Tween20 and 20 μl of water was added to give 2 OD conjugate.
Gold conjugates were mixed when required with rabbit IgG ((final concentration 50 ng/ml) at 22° C. Conjugates were 0.2 OD final concentration (i.e. 1/10 dilution from stock conjugates). Samples were run in triplicate on lateral flow test strips as described in Example 1.

[3] abbreviates: additive 50 mM final, MES pH 5.0, EDC, lateral flow test line signal.

“Also recorded” adds a separate entry of the source.

As to `CCC(N)C(=O)O` (racemic) [DL-2 Aminobutyric Acid], in data set [1], the “pKa of the carboxyl (acid) group” value is given as 2.29 and the “pKa (COOH)” value was “pKa = 2.29”. Besides, the “% of Signal” value in data set [2] (setting [3]) stood at 101%. For the same molecule, the “interference in carbodiimide-mediated antibody-gold nanoparticle conjugation reaction” value (shortened to “interference”) in data set [2] (pH 5, EDC, listed as DL-2-aminobutyric acid) is reported as “little or no effect”. In addition, the “interference” value in data set [2] (pH 5, EDC, listed as DL-2 amino butyric acid) is listed as “no interference”.
Consider `O=S(=O)(O)CCN1CCN(CCS(=O)(=O)O)CC1` [PIPES, piperazine-N,N′-bis(2-ethanesulfonic acid)], for which the pKa of buffer in data set [1] is listed as 6.76.
Consider `O=C(O)CCC(=O)O` [Succinic Acid], for which the “% of Signal” value in data set [2] (setting [3]) came to 0%. For the same molecule, in data set [2] (pH 5, EDC), the “interference” value was “severe interference”.
For `C[C@H](N)C(=O)O` [Alanine], in data set [2] (setting [3]), the “% of Signal” value is 100%. Moreover, in data set [2] (pH 5, EDC), the “interference” value was “little or no effect”.
As to `CC(=O)[O-].[Na+]` [Na Acetate, sodium acetate], in data set [2] (pH 5), the “% of Signal” value is 37% and the “interference” value was “significant interference but not totally abolishing the conjugation reaction”.
As to `O=C(O)C1CCCCC1` [Cyclohexane-carboxylic acid, cyclohexane carboxylic acid], the “% of Signal” value in data set [2] (setting [3]) is 71%. For the same molecule, the “interference” value in data set [2] (pH 5, EDC) is recorded as “significant interference but not totally abolishing the conjugation reaction”.
`[N-]=[N+]=[N-].[Na+]` [0.01% NaN3, sodium azide]: in data set [1], the “pKa (COOH)” value is recorded as “pKa1 = 4.8”. In data set [2] (setting [3]), the “% of Signal” value is 26%. In addition, the “interference” value in data set [2] (pH 5, EDC) is “caused interference”.
For `CNCC(=O)O` [N-Methylglycine (Sarcosine), N-methylglycine], in data set [1], the “pKa (COOH)” value is reported as “pKa1 = 2.36”. For the same molecule, in data set [2] (setting [3]), the “% of Signal” value was 93%. The “interference” value in data set [2] (pH 5, EDC) was “little or no effect”.
In the case of `O=C(O)c1c(O)cc(O)cc1O` [2,4,6-Trihydroxy-benzoic Acid, 2,4,6-trihydroxybenzoic acid], in data set [1], the “pKa (COOH)” value was “pKa1 = 1.68”. Further, the “% of Signal” value in data set [2] (setting [3]) was found to be 0%. The “interference” value in data set [2] (pH 5, EDC) was “severe interference”.
Regarding `NCCC(=O)O` [Beta-Alanine], the “pKa (COOH)” value in data set [1] was “pKa = 3.6”. For the same molecule, the “% of Signal” value in data set [2] (setting [3]) is given as 92%. Also, in data set [2] (pH 5, EDC), the “interference” value is on record as “little or no effect”.
For the molecule Phosphate, the “interference” value in data set [2] (pH 5, EDC) is given as “caused interference”.
For `CC(=O)O` [acetic acid], the “interference” value in data set [2] (pH 5, EDC) is given as “greater interference in carbodiimide reactions than glycine”.
`O=S(=O)(O)CCCCN1CCN(CCO)CC1` [HEPBS, N-(2-Hydroxyethyl)piperazine-N′-(4-butanesulfonic acid)]: the pKa of buffer in data set [1] is 8.3.
In the case of `O=C(O)c1cccnc1` [Nicotinic Acid], in data set [1], the “pKa of the carboxyl (acid) group” value is 2.2 and the “pKa (COOH)” value is on record as “pKa1 = 2.201”. Further, the “% of Signal” value in data set [2] (setting [3]) is 73%. Moreover, in data set [2] (pH 5, EDC), the “interference” value was “significant interference; also recorded: partial interference”.
As for `NC(CO)(CO)CO` [Tris], the “pKa (COOH)” value in data set [1] is on record as “pKa1 = 8.07”. Moreover, the “% of Signal” value in data set [2] (setting [3]) came out at 19%. In data set [2] (pH 5, EDC), the “interference” value is “severe interference”.
